Source: article PMC8037310, “Thrombin-Derived Peptides Potentiate the Activity of Gram-Positive-Specific Antibiotics against Gram-Negative Bacteria” (Molecules, 2021)
≈ marks a conversion by molar mass, not a printed value. Where “and” joins values, the source holds several entries; their conditions need not be identical. Equal values may be shown once. Peptide text beside a SMILES is read from it.

What was measured:
[1] = tested on: defibrinated sheep blood (red blood cells); assay: Hemolysis assay; assay type: cell-based; conditions: 200 µg/mL compound, 20 h incubation at 37 °C with defibrinated sheep blood, PBS 0.002% Tween20, absorbance 415 nm, relative to 0.1% Triton X-100; n=3 technical replicates
Summary of the method: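 % hemolysis is supernatant absorbance at 415 nm, minus the buffer-only background, relative to 0.1% Triton X-100 lysis. Compound dilutions (200–1.56 µg/mL before adding cells) were incubated with an equal volume of red cells for 20 h at 37 °C and 500 rpm. Cells were washed and normalized in PBS/0.002% Tween20 to about 2.5 A415 at full lysis.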

A. baumannii ATCC17978 = assay: microbe, parasite or virus in culture; assay type: cell-based, Acinetobacter baumannii; conditions: for MICpeptide: peptide alone; for MICpeptide / MSCpeptide / MSCrif: A. baumannii ATCC17978; for MSCpeptide: peptide concentration in the combination with rifampicin giving the lowest FICi; for MSCrif: rifampicin concentration in the combination giving the lowest FICi
Description: All peptides were screened for antimicrobial activity against E. coli BW25113, E. coli ATCC25922, and E. coli W3110. A select group of the peptides was further tested against E. coli mcr-1, E. coli EQASmcr-1 (EQAS 2016 412016126), E. coli EQASmcr-2 (EQAS 2016 KP37), E. coli EQASmcr-3 (EQAS 2017 2013-SQ352), K. pneumoniae ATCC13883, P. aeruginosa ATCC27853, and A. baumannii ATCC17978. The antimicrobial assay was performed according to CLSI guidelines. Bacteria were plated out directly from their glycerol stocks on blood agar plates, incubated overnight at 37 °C, and then kept in the fridge. The blood agar plates were only used for 2 weeks and then replaced.
(§1) One colony from a blood agar plates was inoculated in Lysogeny Broth (LB) at 37 °C until a 0.5 optical density at 600 nm (OD600) was reached (compared to the sterility control of LB). The bacterial suspension was diluted in fresh LB to 2.0 × 10^6 CFU/mL. The serial dilutions were prepared in polypropylene microtiter plates: a stock of the test compounds was prepared with a 2x final concentration in LB. Moreover, 100 µL of the stock was added to the wells of the top row of which 50 µL was used for the serial dilution. The bottom row of each plate was used as the positive (50 µL of LB) and negative controls (100 µL of LB) (6 wells each). Furthermore, 50 µL of the 2.0 × 10^6 CFU/mL bacterial stock was added to each well except for the negative controls, adding up to a total volume of 100 µL per well. The plates were sealed with a breathable seal and incubated for 20 h at 37 °C and 600 rpm.
Two 96-well plates were required per compound. A serial dilution of the compound was performed on two plates from row A–G using with LB as medium. Row H was filled with 25 µL medium. On a separate plate a negative control (8 wells, 100 μL medium) was prepared. For all concentrations of antibiotic a specific stock was prepared. 25 µL medium was added to the 0 µg/mL antibiotic columns (plate I, column 1–3). Of each antibiotic stock 25 µL was added to three columns to obtain triplicates for every condition. Both plates contained 50 µL in each well to which 50 µL bacterial stock was added (see the protocol of the MIC assays) and the plates were sealed. After incubation for 20 h at 37 °C while shaking, the breathable seals were removed and the density of the bacterial suspensions measured at 600 nm (OD600) using a Tecan Spark plate reader. The OD600 values were transformed to a 2D gradient with the negative control as minimum and the positive control (wells G1, G2, and G3) as maximum in excel. The FICi was calculated using Equation (1) with a FICi ≤ 0.5 indicating synergy. FICi = (MSCa/MICa) + (MSCb/MICb),(1)
Calculation of the FICi: MSCa = concentration of the […] in combination with the antibiotic that results in the lowest FICi. MICa = MIC of the antibiotic without synergist (row G). MSCb = concentration of the synergist in combination with the antibiotic that results in the lowest FICi. MICb = MIC of the synergist itself (Column 1–3, plate I).

E. coli BW25113 = assay: LPS competition assay; assay type: cell-based, Escherichia coli; conditions: E. coli BW25113, LB, 20 h 37 °C, visual read-out
Description: as §1
The same protocol as the MIC assay was used to prepare the serial dilution of the compounds in 96-wells plates in duplicate resulting in two identical plates. A serial dilution of colistin was taken along as a control. The inoculation and preparation of the bacteria stock was performed as described for the MIC assay. The stock of bacteria was then split into two stocks. […] The normal bacteria stock was added to the remaining plate as described in the MIC assay.

[2] = with rifampicin vs A. baumannii ATCC17978

SMILES	Hemolysis [1]	MICpeptide (A. baumannii ATCC17978)	MSCpeptide (A. baumannii ATCC17978)	MSCrif (A. baumannii ATCC17978)	FICi (A. baumannii ATCC17978; [2])	MIC + 1.0 mg/ml LPS (E. coli BW25113; in the presence of 1 mg/mL LPS)	MIC (E. coli BW25113; without LPS)	FICi (A. baumannii ATCC17978; ATCC17978, 20 h)
CC[C@H](C)[C@H](NC(=O)[C@@H](NC(=O)[C@H](CCCCN)NC(=O)[C@H](CCC(N)=O)NC(=O)[C@@H](NC(=O)[C@H](Cc1c[nH]c2ccccc12)NC(=O)[C@H](CCCCN)NC(=O)[C@H](CCCCN)NC(=O)[C@H](CC(C)C)NC(=O)[C@H](CCCNC(=N)N)NC(=O)[C@H](Cc1ccccc1)NC(=O)[C@@H](N)C(C)C)[C@@H](C)CC)C(C)C)C(N)=O [peptide 6] (H-VFRLKKWIQKVI-NH2)	4.0%	50 µg/mL	3.125 µg/mL	0.125 µg/mL	0.1250	200 mg/L	12.5 mg/L (≈ 8.03 µM)	–
CC[C@H](C)[C@H](NC(=O)[C@@H](NC(=O)[C@H](CCCCN)NC(=O)[C@H](CCC(N)=O)NC(=O)[C@@H](NC(=O)[C@H](Cc1c[nH]c2ccccc12)NC(=O)[C@H](CCCCN)NC(=O)[C@H](CCCCN)NC(=O)[C@H](CC(C)C)NC(=O)[C@H](C)NC(=O)[C@H](Cc1ccccc1)NC(=O)[C@@H](N)C(C)C)[C@@H](C)CC)C(C)C)C(N)=O [peptide 10] (H-VFALKKWIQKVI-NH2)	3.8% and 4%	50 µg/mL	3.125 µg/mL	0.125 µg/mL	0.1250	–	–	–
CC[C@H](C)[C@H](NC(=O)[C@@H](NC(=O)[C@H](CCCCN)NC(=O)[C@H](CCC(N)=O)NC(=O)[C@@H](NC(=O)[C@H](C)NC(=O)[C@H](CCCCN)NC(=O)[C@H](CCCCN)NC(=O)[C@H](CC(C)C)NC(=O)[C@H](CCCNC(=N)N)NC(=O)[C@H](Cc1ccccc1)NC(=O)[C@@H](N)C(C)C)[C@@H](C)CC)C(C)C)C(N)=O [peptide 14] (H-VFRLKKAIQKVI-NH2)	0.9% and 1%	> 200 µg/mL	6.25 µg/mL	0.125 µg/mL	–	–	–	0.0781
CC[C@H](C)[C@H](NC(=O)[C@H](Cc1c[nH]c2ccccc12)NC(=O)[C@H](CCCCN)NC(=O)[C@H](CCCCN)NC(=O)[C@H](CC(C)C)NC(=O)[C@H](CCCNC(=N)N)NC(=O)[C@H](Cc1ccccc1)NC(=O)[C@@H](N)C(C)C)C(=O)N[C@@H](CCC(N)=O)C(=O)N[C@@H](CCCCN)C(=O)N[C@H](C(=O)N[C@@H](C)C(N)=O)C(C)C [peptide 19] (H-VFRLKKWIQKVA-NH2)	1.0%	100 µg/mL	6.25 µg/mL	0.063 µg/mL	–	–	–	0.0938
